What was measured:
Peregrin (Homo sapiens) = target: T1, Peregrin (Homo sapiens) (UniProt P55201); test: Binding affinity to […] (unknown origin) assessed as change in enthalpy at 17 uM by Isothermal titration calorimetry
T1 sequence (whole entry): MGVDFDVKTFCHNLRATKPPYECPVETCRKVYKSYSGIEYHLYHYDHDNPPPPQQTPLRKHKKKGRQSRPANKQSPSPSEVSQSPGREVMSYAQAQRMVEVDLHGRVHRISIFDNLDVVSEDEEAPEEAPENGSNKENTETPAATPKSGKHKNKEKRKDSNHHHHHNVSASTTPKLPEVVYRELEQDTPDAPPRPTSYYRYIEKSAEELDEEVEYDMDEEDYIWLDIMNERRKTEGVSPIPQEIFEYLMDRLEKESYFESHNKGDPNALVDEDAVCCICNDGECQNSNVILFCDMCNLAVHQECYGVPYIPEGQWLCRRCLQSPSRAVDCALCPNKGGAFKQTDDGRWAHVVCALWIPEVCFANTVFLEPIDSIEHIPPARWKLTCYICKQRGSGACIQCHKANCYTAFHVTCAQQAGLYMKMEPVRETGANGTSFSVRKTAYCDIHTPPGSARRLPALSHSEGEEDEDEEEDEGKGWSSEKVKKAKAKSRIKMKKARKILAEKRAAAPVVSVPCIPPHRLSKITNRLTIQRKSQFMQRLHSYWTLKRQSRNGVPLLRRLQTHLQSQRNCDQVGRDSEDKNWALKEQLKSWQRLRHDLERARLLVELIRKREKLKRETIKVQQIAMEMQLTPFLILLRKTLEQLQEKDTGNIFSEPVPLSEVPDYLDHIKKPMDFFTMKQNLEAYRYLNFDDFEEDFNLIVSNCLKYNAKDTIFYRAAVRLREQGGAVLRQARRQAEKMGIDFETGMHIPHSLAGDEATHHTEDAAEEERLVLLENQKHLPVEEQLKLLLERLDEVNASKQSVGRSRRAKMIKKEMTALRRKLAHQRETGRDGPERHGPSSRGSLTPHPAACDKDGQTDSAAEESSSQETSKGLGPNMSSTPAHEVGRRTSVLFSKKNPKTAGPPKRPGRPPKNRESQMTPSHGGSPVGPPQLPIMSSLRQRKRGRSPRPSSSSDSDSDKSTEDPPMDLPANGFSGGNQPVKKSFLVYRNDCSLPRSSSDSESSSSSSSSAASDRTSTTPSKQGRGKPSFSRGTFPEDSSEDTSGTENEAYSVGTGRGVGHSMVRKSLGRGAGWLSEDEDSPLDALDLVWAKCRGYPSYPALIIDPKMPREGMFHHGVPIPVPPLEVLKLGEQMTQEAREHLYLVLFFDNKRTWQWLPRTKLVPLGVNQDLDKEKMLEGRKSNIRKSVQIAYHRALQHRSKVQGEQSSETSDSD

[1] = target: KV channel (voltage-gated potassium channel family) (Homo sapiens, UniProt O43525+O43526+O95259+P16389+P17658+P22001+P22459+P22460+P48547+P51787+P56696+Q03721+Q09470+Q12809+Q14003+Q14721+Q16322+Q6PIU1+Q8NCM2+Q8TAE7+Q8TDN1+Q8TDN2+Q92953+Q96KK3+Q96L42+Q96PR1+Q96RP8+Q9BQ31+Q9H252+Q9H3M0+Q9NR82+Q9NS40+Q9NSA2+Q9NZV8+Q9UIX4+Q9UJ96+Q9UK17+Q9ULD8+Q9ULS6+Q9UQ05); test: Binding affinity to KV channel (unknown origin) assessed as specific binding at 10 uM relative to control; assay type: protein assay; conditions: read-out: Activity

deltaH (Peregrin (Homo sapiens)): -12.6 kcal/mol
activity at 10 µM [1]: 124%
SMILES: COc1cc2c(cc1NS(=O)(=O)c1ccc(Br)cc1C)n(C)c(=O)n2C

From ChEMBL document CHEMBL5715956, “Selective Targeting of Bromodomains of the Bromodomain-PHD Fingers Family Impairs Osteoclast Differentiation” (ACS Chem Biol, 2017)
